Experimental data published in ChEMBL document CHEMBL1201862, “PubChem BioAssay data set” (2004).
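Test compounds were applied to cells in 96-well plates for 48 hours at 5 doses. Abbreviation: GI50, concentration required for 50% inhibition of growth.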 Calls of active or inactive are those of the source. Rule as the data show it: active = GI50 up to about 1.1 µM and inactive = higher.

Key:
Experiment in all cases: DTP human tumour cell line panel, 48 h
[1] = system: BT-549
[2] = system: HCT-15
[3] = system: KM12
[4] = system: MDA-MB-231
[5] = system: MOLT-4
[6] = system: NCI-H460
[7] = system: NCI/ADR-RES
[8] = system: OVCAR-3
[9] = system: OVCAR-5
[10] = system: PC-3
[11] = system: SF-268
[12] = system: SK-MEL-2
[13] = system: SK-MEL-5
[14] = system: SN12C
[15] = system: SR
[16] = system: SW-620
[17] = system: UO-31
[18] = system: CCRF-CEM
[19] = system: HOP-92
[20] = system: HL-60

SMILES	GI50 [1]	GI50 [2]	GI50 [3]	GI50 [4]	GI50 [5]	GI50 [6]	GI50 [7]	GI50 [8]	GI50 [9]	GI50 [10]	GI50 [11]	GI50 [12]	GI50 [13]	GI50 [14]	GI50 [15]	GI50 [16]	GI50 [17]	GI50 [18]	GI50 [19]	GI50 [20]
COc1cc(C2SCC(=O)N2c2ccc(Oc3ccc(Cl)cc3)c(Cl)c2)cc(OC)c1OC (stereo not drawn)	16.5 µM (inactive)	26.2 µM	19.8 µM (inactive)	18.7 µM (inactive)	8.04 µM (inactive)	43.4 µM (inactive)	16.6 µM (inactive)	17.1 µM (inactive)	23.2 µM (inactive)	15.4 µM (inactive)	17.2 µM (inactive)	17.1 µM (inactive)	17.9 µM (inactive)	27.3 µM (inactive)	22 µM (inactive)	21 µM (inactive)	17.6 µM (inactive)	–	–	–
O=C(N[C@@H](c1ccccc1)[C@@H](O)C(=O)OCc1ccc([N+](=O)[O-])cc1)c1ccccc1	> 100 µM (inactive)	> 100 µM	> 100 µM (inactive)	> 100 µM (inactive)	25.8 µM (inactive)	> 100 µM (inactive)	> 100 µM (inactive)	> 100 µM (inactive)	> 100 µM (inactive)	> 100 µM (inactive)	> 100 µM (inactive)	> 100 µM (inactive)	75.9 µM (inactive)	> 100 µM (inactive)	–	> 100 µM (inactive)	65.5 µM (inactive)	67.6 µM (inactive)	> 100 µM (inactive)	–
O=C(O)CC(NC(=O)/C(=C/c1ccccc1O)NC(=O)c1ccccc1)C(=O)O (stereo not drawn)	57 µM (inactive)	59.4 µM	> 100 µM (inactive)	> 100 µM (inactive)	52.4 µM (inactive)	–	> 100 µM (inactive)	> 100 µM (inactive)	> 100 µM (inactive)	86.1 µM (inactive)	–	> 100 µM (inactive)	> 100 µM (inactive)	> 100 µM (inactive)	29.8 µM (inactive)	> 100 µM (inactive)	43.4 µM (inactive)	33.9 µM (inactive)	–	25.8 µM (inactive)
O=C(OCC1CC(C2(O)CCCCC2)C(=O)O1)c1ccccc1 (stereo not drawn)	> 100 µM (inactive)	> 100 µM	> 100 µM (inactive)	> 100 µM (inactive)	> 100 µM (inactive)	71.8 µM (inactive)	> 100 µM (inactive)	> 100 µM (inactive)	> 100 µM (inactive)	> 100 µM (inactive)	> 100 µM (inactive)	> 100 µM (inactive)	> 100 µM (inactive)	> 100 µM (inactive)	> 100 µM (inactive)	> 100 µM (inactive)	55.8 µM (inactive)	> 100 µM (inactive)	5.5 µM (inactive)	–
O=C1Cc2c([nH]c3ccccc23)C2(CC3CCCCN13)OCCO2 (stereo not drawn)	> 100 µM (inactive)	> 100 µM	> 100 µM (inactive)	84.5 µM (inactive)	–	> 100 µM (inactive)	> 100 µM (inactive)	> 100 µM (inactive)	> 100 µM (inactive)	> 100 µM (inactive)	> 100 µM (inactive)	> 100 µM (inactive)	> 100 µM (inactive)	> 100 µM (inactive)	> 100 µM (inactive)	> 100 µM (inactive)	> 100 µM (inactive)	90.4 µM (inactive)	34.2 µM (inactive)	–
CCCCOC(=O)C1CN2C(=NC1(C(F)(F)F)C(F)(F)F)Sc1ccccc12 (stereo not drawn)	26.1 µM (inactive)	45.6 µM	27.2 µM (inactive)	> 100 µM (inactive)	23 µM (inactive)	34.9 µM (inactive)	27 µM (inactive)	58.5 µM (inactive)	> 100 µM (inactive)	16.2 µM (inactive)	33.8 µM (inactive)	34.8 µM (inactive)	20 µM (inactive)	98.4 µM (inactive)	–	49.5 µM (inactive)	19.2 µM (inactive)	30.2 µM (inactive)	72.4 µM (inactive)	16.6 µM (inactive)
Cn1c2ccccc2c2c(=S)c3ccccc3ccc21	> 100 µM (inactive)	> 100 µM	55.7 µM (inactive)	> 100 µM (inactive)	16.2 µM (inactive)	> 100 µM (inactive)	> 100 µM (inactive)	17.8 µM (inactive)	> 100 µM (inactive)	59.4 µM (inactive)	> 100 µM (inactive)	–	44.6 µM (inactive)	> 100 µM (inactive)	> 100 µM (inactive)	> 100 µM (inactive)	> 100 µM (inactive)	19 µM (inactive)	> 100 µM (inactive)	> 100 µM (inactive)
CC(=O)O[C@H]1CCC2[C@@H]3CCC4Cc5nc6c(nc5C[C@]4(C)C3CC[C@@]21C)CC1CC[C@@H]2C(CC[C@@]3(C)C2CC[C@@H]3C(C)CCCC(C)C)[C@@]1(C)C6 (stereo partly drawn)	> 100 µM (inactive)	> 100 µM	> 100 µM (inactive)	> 100 µM (inactive)	> 100 µM (inactive)	> 100 µM (inactive)	> 100 µM (inactive)	> 100 µM (inactive)	> 100 µM (inactive)	> 100 µM (inactive)	> 100 µM (inactive)	> 100 µM (inactive)	> 100 µM (inactive)	> 100 µM (inactive)	–	> 100 µM (inactive)	> 100 µM (inactive)	> 100 µM (inactive)	> 100 µM (inactive)	> 100 µM (inactive)
C(=N\NC1=NCCN1)/c1cccc2cc3ccncc3nc12	16 µM (inactive)	3.4 µM	5.73 µM (inactive)	2.15 µM (inactive)	1.69 µM (inactive)	4.36 µM (inactive)	3.24 µM (inactive)	4.81 µM (inactive)	–	3.67 µM (inactive)	3.85 µM (inactive)	–	9.51 µM (inactive)	3.15 µM (inactive)	1.08 µM (active)	1.94 µM (inactive)	3.21 µM (inactive)	1.1 µM (active)	1 µM (active)	1.04 µM (active)
CCOC(=O)Nn1cnnc1Cc1ccccc1	> 100 µM (inactive)	> 100 µM	> 100 µM (inactive)	> 100 µM (inactive)	> 100 µM (inactive)	> 100 µM (inactive)	> 100 µM (inactive)	> 100 µM (inactive)	> 100 µM (inactive)	> 100 µM (inactive)	> 100 µM (inactive)	> 100 µM (inactive)	> 100 µM (inactive)	> 100 µM (inactive)	> 100 µM (inactive)	> 100 µM (inactive)	> 100 µM (inactive)	> 100 µM (inactive)	> 100 µM (inactive)	–
O=c1c(-c2ccccc2Cl)coc2cc(F)ccc12	14.9 µM (inactive)	31.8 µM	21.5 µM (inactive)	19.4 µM (inactive)	22 µM (inactive)	37.6 µM (inactive)	19.5 µM (inactive)	30.7 µM (inactive)	27.1 µM (inactive)	> 100 µM (inactive)	40.7 µM (inactive)	66.4 µM (inactive)	27.3 µM (inactive)	53.2 µM (inactive)	–	30.6 µM (inactive)	20.4 µM (inactive)	24.3 µM (inactive)	18.6 µM (inactive)	4.3 µM (inactive)
CCC(C)(C)C1CCC2c3c([nH]c4ccccc34)C3C(=O)N(c4ccc(OC)cc4)C(=O)C3C2C1 (stereo not drawn)	16.1 µM (inactive)	27.5 µM	3.48 µM (inactive)	13 µM (inactive)	3.62 µM (inactive)	7.4 µM (inactive)	15.6 µM (inactive)	2.19 µM (inactive)	15.3 µM (inactive)	9.79 µM (inactive)	15 µM (inactive)	16.7 µM (inactive)	–	2.42 µM (inactive)	39.8 µM (inactive)	17.4 µM (inactive)	24.4 µM (inactive)	–	–	–
CC(=O)N1N=C(c2ccc3ccccc3c2O)CC1C(=O)c1ccco1 (stereo not drawn)	30.3 µM (inactive)	26.7 µM	10.8 µM (inactive)	80.5 µM (inactive)	5.62 µM (inactive)	15.3 µM (inactive)	18.1 µM (inactive)	20.3 µM (inactive)	28.6 µM (inactive)	22.5 µM (inactive)	14.4 µM (inactive)	18.7 µM (inactive)	25 µM (inactive)	41.2 µM (inactive)	3.78 µM (inactive)	33.3 µM (inactive)	23.1 µM (inactive)	6.24 µM (inactive)	16.6 µM (inactive)	–
COc1cc2cc(C(=O)N3CC(CCl)c4c3cc([N+](=O)[O-])c3ccccc43)[nH]c2c(OC)c1OC (stereo not drawn)	> 100 µM (inactive)	–	> 62.8 µM (inactive)	> 100 µM (inactive)	13.8 µM (inactive)	4.68 µM (inactive)	9.06 µM (inactive)	> 100 µM (inactive)	25.6 µM (inactive)	10.9 µM (inactive)	26.8 µM (inactive)	> 100 µM (inactive)	29.6 µM (inactive)	79.6 µM (inactive)	0.455 µM (active)	> 100 µM (inactive)	> 100 µM (inactive)	11.6 µM (inactive)	> 70.1 µM (inactive)	–
Cc1ccc2c(c1)NC(=O)CC(c1ccccc1)=N2	> 100 µM (inactive)	61.4 µM	43.9 µM (inactive)	23.7 µM (inactive)	28.6 µM (inactive)	> 100 µM (inactive)	77.4 µM (inactive)	> 100 µM (inactive)	> 100 µM (inactive)	97.1 µM (inactive)	> 100 µM (inactive)	> 100 µM (inactive)	40 µM (inactive)	> 100 µM (inactive)	23.7 µM (inactive)	> 100 µM (inactive)	63.1 µM (inactive)	–	> 100 µM (inactive)	–
